# Laboratory results from patent publication US12415939B2, “Nano-adhesive and surface primer compound and use thereof” (The Regents of the University of California, priority 2015, dated 2025).
# Key:
# [1] = QCM-D adsorption of zwitterionic molecules; type: physicochemical; conditions: silica
# Excerpt: Quartz Crystal Microbalance (QCM): Adsorption of the molecules on different surfaces such as silica, SiO2, (FIGS. 7A-7E) and titania, TiO2, (FIGS. 8A-8E) was also explored by the quartz crystal microbalance (QCM) and confocal fluorescence microscopy after rhodamine staining (FIG. 27A-27B). Quartz crystal microbalance with dissipation (QCM-D): A “static cell” (often called “Open Model”) QCM-D (Q-Sense, Biolin Scientific) was employed to qualitatively show the adsorption of the zwitterionic molecules onto mineral and metal oxide surfaces. 50 μl of 5 mM zwitterionic solution was deposited onto TiO2 and SiO2 surface, respectively, in DI H2O (100 μl) using a static cell via two-step adsorption. […] However, a quantitative discussion regarding the adsorbed mass (frequency shift) and the viscoelastic properties (dissipation) of the adsorbed “soft” layers is challenging because the mass of the zwitterionic molecules cannot be separated from the mass of adsorbed water. […]
# Quartz crystal microbalance with dissipation (QCM-D) is an extension to the QCM technique developed by Q-Sense® and can be used to determine the rigidity/softness and the viscoelastic properties of the adsorbed material. The QCM quartz crystal was coated with different rigid materials (e.g., metals, polymers, dielectrics) and the adsorption kinetics can be monitored on these materials in liquid environment. […]
# [2] = AFM force between Z-Cat-Ben SAM on silica and a silica bead; type: physicochemical; conditions: SAM on silica from 5 mM
# Excerpt: The pristine self-assemble of the Z-Cat-Ben molecules on silica surface exposed the aromatic residues to the air-water interface resulting in a low interfacial energy between a silica bead and the SAM surface as measured with the AFM technique (Wad˜0.07 mJ/m^2, see FIG. 47). This is unlike the strong adhesion of SAMs exposing catechol residues to the air water interface that bind to silica surface through hydrogen bonding interactions (Wad˜7.7 mJ/m^2).
# [3] = AFM adhesion force runs with silica probe on Z-Cat-C10 coated silicon wafer; type: physicochemical
# Experimental: AFM force runs were measured with and without Z-Cat-C10 on silicon wafer and copper plate, respectively, vs. silicon dioxide probe. Underwater force run was conducted for the surface prepared subsequently after spreading the 5 mM Z-Cat-C10, waiting for 2 min, rinsing thoroughly with degassed DI water thoroughly for 3 times. Dry force run was performed after ˜5 min dry of the surface prepared as for the underwater force run. […] Cantilever spring constant (K) for #=10 μm silica tip on silicon wafer and copper plate with Z-Cat-C10, was 0.1 N m^−1.
# The measured adhesion, Fa, force (minimum of the potential well of the F vs. D curves obtained from AFM measurements) is related to the adhesion energy per unit area by Wa=Fa/2πR for rigid surfaces with weak adhesive interactions, and by Wa=Fa/1.5πR (used in this study) for soft deformable surfaces with strong adhesion or cohesion. Since copper surface (RMS˜2 nm) is rougher than silicon wafer (RMS<1 nm), the Wa on copper surface was comparatively weaker than the Wa of silicon wafer. Hydroxide/oxide on copper surface also weakens the adhesion to copper plate compared to just oxide on silicon wafer (see FIGS. 18-23). […]
# The adhesion/cohesion energy of the synthetic zwitterionic molecules was investigated in SFA (SurForce LLC, Santa Barbara, CA). Two molecularly smooth freshly cleaved back silvered mica surfaces glued on cylindrical silica discs of radius of curvature, R˜2 cm, were mounted in the SFA and 50 μL of a colloidal dispersion of the synthetic molecules in DI water were injected between the surfaces at different concentrations (C=0.5-5 mM) and the forces between the thin films of the molecules were measured by Multiple Beam Interferometry (MBI). The adhesion forces between Z-Cat-C10 molecules on various surfaces, e.g., silica and copper, were also measured by AFM (MFP-3D, Asylum research, Goleta, CA) in DI water and ambient conditions, respectively, at room temperature. […] Cantilever spring constants were measured for each force run. […]
# [4] = Standard three point bending peel test; conditions: ambient dry, n=4
# Experimental: Samples were prepared as described above in “Lap Joint Bending Peel Test” underwater, i.e., aqueous periodate solution, then dried 12 h and 24 h, respectively, in ambient condition. In this standard three point bending peel test, the cross section area was 2.54 cm×1.27 cm.
# The standard three point bending peel test (FIG. 24F) was conducted with a Bionix 200 tensile tester (MTS Systems) in ambient conditions. All tests were conducted with a test speed of 5 mm min-1.
"adsorbed mass ([1]; 5 mM, zero applied pressure) [ng/cm^2]",adsorbed layer thickness ([1]; Voigt model) [nm],SMILES,interfacial energy Wad between silica bead and SAM [2] [mJ/m^2],dry Wad relative to catecholic polysiloxane ([3]; SiO2 and SiO2 surfaces) [fold],"adhesion Wad after air-drying ([3]; air-dried ~5 min, SiO2 and SiO2 surfaces) [mJ m^−2]","wet work of adhesion Wad ([3]; underwater, SiO2 and SiO2 interface, 5 mM coating) [mJ m^−2]",three point bending peel strength [4] [N cm^−1]
85,1,C[N+](C)(CCCc1ccccc1)CCOP(=O)([O-])OCCCc1ccc(O)c(O)c1 [Z-Cat-Ben],~0.07,,,,
,,CN(C)CCOP(=O)(O)OCCCc1ccc(O)c(O)c1 [Z-Cat-C10],,50,~175,~7.7,20.5
